Experimental data reported in the supplement of paper PMC10331698.
± gives the standard deviation of the averaged measurements.

How the values were obtained:
Experiment in all cases: level (log10 ratio to DMSO vehicle control); higher = higher biomarker level / cell amount than vehicle control
Conditions in all cases: in DMSO
Perfluoroheptanoic acid = compound: O=C(O)C(F)(F)C(F)(F)C(F)(F)C(F)(F)C(F)(F)C(F)(F)F [Perfluoroheptanoic acid]
Protocol: (§1)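 BioMAP Diversity Plus panel of 12 human primary cell co-culture systems (3C, 4H, LPS, SAg, BT, BF4T, BE3C, CASM3C, HDF3CGF, KF3CT, MyoF, Mphg). Compounds were added 1 h before stimulation and left for 24 h (MyoF 48 h; BT 72 h for soluble read-outs or 6 d for IgG). Biomarkers were read by ELISA, cytotoxicity by SRB, PBMC viability and proliferation by Alamar Blue. Each well value was divided by the mean of 8 DMSO control wells on the same plate and log10 transformed; duplicate blinded samples were tested at 4 concentrations.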

Heptafluorobutyramide = compound: NC(=O)C(F)(F)C(F)(F)C(F)(F)F [Heptafluorobutyramide]
Protocol: as §1

Perfluorodecanoic acid = compound: O=C(O)C(F)(F)C(F)(F)C(F)(F)C(F)(F)C(F)(F)C(F)(F)C(F)(F)C(F)(F)C(F)(F)F [Perfluorodecanoic acid]
Protocol: as §1

[1] = compound: O=C(O)C(F)(F)OC(F)(F)C(F)(F)OC(F)(F)F [Perfluoro-3,6-dioxaheptanoic acid]
Protocol: as §1

Pentafluoropropionamide = compound: NC(=O)C(F)(F)C(F)(F)F [Pentafluoropropionamide]
Protocol: as §1

[2] = compound: C=CC(=O)OCC(F)(F)C(F)(F)C(F)(F)C(F)(F)C(F)(F)C(F)(F)C(F)(F)F [1H,1H-Perfluorooctyl acrylate]
Protocol: as §1

[3] = compound: C=C(C)C(=O)OCCC(F)(F)C(F)(F)C(F)(F)C(F)(F)C(F)(C(F)(F)F)C(F)(F)F [(Perfluoro-5-methylhexyl)ethyl 2-methylprop-2-enoate]
Protocol: as §1

| Test System | level (log10) (Perfluoroheptanoic acid; 6700 nM) | level (log10) (Perfluoroheptanoic acid; 20000 nM) | level (log10) (Perfluoroheptanoic acid; 60000 nM) | level (log10) (Heptafluorobutyramide; 6700 nM) | level (log10) (Heptafluorobutyramide; 20000 nM) | level (log10) (Heptafluorobutyramide; 60000 nM) | level (log10) (Perfluorodecanoic acid; 6700 nM) | level (log10) (Perfluorodecanoic acid; 20000 nM) | level (log10) ([1]; 6700 nM) | level (log10) ([1]; 20000 nM) | level (log10) ([1]; 60000 nM) | level (log10) (Pentafluoropropionamide; 6700 nM) | level (log10) (Pentafluoropropionamide; 20000 nM) | level (log10) (Pentafluoropropionamide; 60000 nM) | level (log10) ([2]; 6700 nM) | level (log10) ([2]; 20000 nM) | level (log10) ([2]; 60000 nM) | level (log10) ([3]; 6700 nM) | level (log10) ([3]; 20000 nM) |
| --- | --- | --- | --- | --- | --- | --- | --- | --- | --- | --- | --- | --- | --- | --- | --- | --- | --- | --- | --- |
| CASM3C:CD87/uPAR | -0.0005 ± 0.0078 | -0.019 ± 0.031 | -0.0055 ± 0.036 | -0.0065 ± 0.026 | -0.0115 ± 0.032 | -0.033 ± 0.054 | -0.0055 ± 0.005 | 0.016 ± 0.011 | -0.0105 ± 0.043 | 0.022 ± 0.013 | -0.006 ± 0.018 | -0.031 ± 0.05 | -0.012 ± 0.0071 | -0.019 ± 0.03 | 0.0095 ± 0.028 | 0.0135 ± 0.021 | 0.0235 ± 0.019 | -0.0305 ± 0.013 | -0.035 |
| HDF3CGF:PAI-I | -0.017 ± 0.0028 | -0.0215 ± 0.0035 | -0.008 ± 0.041 | -0.0105 ± 0.018 | -0.0275 ± 0.028 | -0.0125 ± 0.03 | 0.15 ± 0.051 | -0.107 ± 0.1 | -0.0525 ± 0.00071 | 0.0225 ± 0.037 | 0.06 | 0.0125 ± 0.04 | -0.011 ± 0.044 | 0 ± 0.014 | 0.032 ± 0.011 | 0.0515 ± 0.037 | 0.036 ± 0.069 | -0.037 ± 0.0028 | -0.0385 ± 0.019 |
| KF3CT:uPA | 0.007 ± 0.016 | 0.0065 ± 0.0021 | 0.0075 ± 0.013 | -0.0085 ± 0.022 | -0.0215 ± 0.026 | -0.006 ± 0.014 | -0.0095 ± 0.013 | 0 ± 0.023 | -0.0175 ± 0.019 | 0.023 ± 0.033 | 0.017 ± 0.05 | -0.005 ± 0.0014 | 0.008 ± 0.0085 | 0.002 ± 0.018 | 0.01 ± 0.0014 | -0.004 ± 0.013 | 0.0135 ± 0.023 | 0.007 ± 0.0057 | 0.007 ± 0.0028 |
| HDF3CGF:EGFR | -0.008 ± 0.016 | 0.004 ± 0.0028 | 0.01 ± 0.023 | 0.0095 ± 0.059 | 0.0005 ± 0.046 | -0.0155 ± 0.032 | -0.075 ± 0.054 | -0.195 ± 0.026 | 0.033 ± 0.0071 | 0.031 ± 0.047 | 0.048 ± 0.054 | 0.006 ± 0.0085 | -0.005 ± 0.011 | 0.007 ± 0.021 | 0.0075 ± 0.012 | 0.0265 ± 0.019 | -0.051 ± 0.093 | -0.0695 ± 0.0078 | -0.0415 ± 0.0064 |
| 3C:CD62E/E-Selectin | 0.007 ± 0.0042 | 0.0125 ± 0.0078 | 0.0185 ± 0.00071 | -0.0085 ± 0.03 | -0.017 ± 0.038 | -0.0385 ± 0.0064 | -0.004 ± 0.0085 | 0.0025 ± 0.019 | -0.0045 ± 0.016 | -0.02 ± 0.017 | 0.01 ± 0.0071 | -0.0075 ± 0.0078 | -0.005 ± 0.011 | 0.005 ± 0.018 | -0.001 ± 0.0071 | -0.006 ± 0.0099 | 0.0035 ± 0.013 | -0.0095 ± 0.018 | -0.0175 ± 0.0021 |
| lMphg:SRB-Mphg | -0.003 ± 0.014 | 0.005 ± 0.0071 | 0.004 ± 0.0042 | -0.038 ± 0.0071 | -0.0175 ± 0.0021 | 0.0155 ± 0.036 | 0.0065 ± 0.00071 | -0.005 ± 0.0085 | -0.053 ± 0.0014 | -0.079 ± 0.13 | -0.076 ± 0.19 | -0.0135 ± 0.074 | 0.0555 ± 0.043 | 0.0595 ± 0.0078 | -0.002 ± 0.011 | -0.0015 ± 0.0078 | 0.0045 ± 0.018 | 0.0015 ± 0.011 | -0.0095 ± 0.021 |
| 3C:CD54/ICAM-1 | 0.0025 ± 0.0035 | -0.0095 ± 0.0092 | 0.008 ± 0.023 | -0.023 ± 0.02 | -0.008 ± 0.0014 | -0.019 ± 0.016 | 0.0105 ± 0.0021 | 0.015 ± 0.0071 | -0.0325 ± 0.0064 | -0.0165 ± 0.019 | 0.0035 ± 0.005 | 0.0035 ± 0.0035 | -0.0105 ± 0.016 | 0.008 ± 0.014 | 0.002 ± 0.0014 | 0 ± 0.0099 | 0 ± 0.018 | -0.009 ± 0.0014 | -0.01 ± 0.0071 |
| HDF3CGF:CXCL8/IL-8 | -0.0055 ± 0.0078 | -0.0055 ± 0.0064 | 0.0095 ± 0.013 | -0.003 ± 0.0057 | 0.002 ± 0.0014 | 0.0045 ± 0.012 | 0.0065 ± 0.005 | 0.02 ± 0.011 | -0.004 ± 0.013 | 0.0015 ± 0.005 | 0.0185 ± 0.016 | -0.006 ± 0.0057 | -0.0105 ± 0.00071 | -0.0065 ± 0.013 | 0.0045 ± 0.0064 | 0.0045 ± 0.0064 | 0.0095 ± 0.0035 | -0.004 ± 0.0042 | 0.0025 ± 0.005 |
